The results in this text go back to patent US7569578B2, “Heterocyclic anti-migraine agents” (Bristol-Meyers Squibb Company, priority 2003, dated 2009).

The test concerns the target T1, Human CGRP1 Receptor (Homo sapiens, UniProt O60894+Q16602).
T1 construct: endogenous in cells; host or cells: SK-N-MC cells (membrane homogenate)
Kind of test: CGRP Binding Assay ([125I]-CGRP radioligand displacement, SK-N-MC membrane homogenate). Particulars: [125I]-CGRP displacement, SK-N-MC homogenate, room temperature 2 h; read-out: Human CGRP1 Receptor IC50. On the procedure:
Tissue Culture. SK-N-MC cells were grown at 37° C. in 5% CO2 as a monolayer in medium consisting of MEM with Earle's salts and L-glutamine (Gibco) supplemented with 10% fetal bovine serum (Gibco).
Cell Pellets. […] The cells were transferred from plates to polypropylene tubes (16×100 mm) and homogenized using a polytron. Homogenates were centrifuged at 32,000×g for 30 min. The pellets were resuspended in cold hypotonic lysis buffer with 0.1% mammalian protease inhibitor cocktail (Sigma) and assayed for protein concentration. The SK-N-MC homogenate was then aliquoted and stored at −80° C. until needed.
Radioligand Binding Assay. The compounds of invention were solubilized and carried through serial dilutions using 100% DMSO. Aliquots from the compound serial dilutions were further diluted 25 fold into assay buffer (50 mM Tris-Cl pH 7.5, 5 mM MgCl2, 0.005% Triton X-100) and transferred (volume 50 μl) into 96 well assay plates. […] SK-N-MC pellets were thawed, diluted in assay buffer with fresh 0.1% mammalian protease inhibitor cocktail (Sigma), and homogenized again. SK-N-MC homogenate (5 μg/well) was added in a volume of 100 μl. The assay plates were then incubated at room temperature for 2 h. Assays were stopped by addition of excess cold wash buffer (20 mM Tris-Cl pH 7.5, 0.1% BSA) immediately followed by filtration over glass fiber filters (Whatman GF/B) previously soaked in 0.5% PEI. Non-specific binding was defined with 1 μM beta-CGRP. Protein bound radioactivity was determined using a gamma or scintillation counter.

T1 sequence (Q16602 23-461): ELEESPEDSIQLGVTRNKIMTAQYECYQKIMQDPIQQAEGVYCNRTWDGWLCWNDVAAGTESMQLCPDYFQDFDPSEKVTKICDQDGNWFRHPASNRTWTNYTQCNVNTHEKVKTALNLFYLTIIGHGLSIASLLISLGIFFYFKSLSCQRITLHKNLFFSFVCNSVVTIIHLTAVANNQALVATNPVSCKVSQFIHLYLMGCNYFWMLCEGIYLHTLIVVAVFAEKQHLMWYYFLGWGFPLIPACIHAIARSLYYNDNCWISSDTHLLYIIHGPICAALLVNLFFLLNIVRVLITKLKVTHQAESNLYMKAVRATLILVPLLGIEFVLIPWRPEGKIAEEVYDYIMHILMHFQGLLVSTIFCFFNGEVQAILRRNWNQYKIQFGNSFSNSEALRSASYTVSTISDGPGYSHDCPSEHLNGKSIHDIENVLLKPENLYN
T1 sequence (O60894 27-148): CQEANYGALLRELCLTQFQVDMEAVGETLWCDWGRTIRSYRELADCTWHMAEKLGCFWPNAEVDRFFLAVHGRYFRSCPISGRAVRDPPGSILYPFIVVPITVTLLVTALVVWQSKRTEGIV

As usually defined, the IC50 is the concentration at which inhibition is half-maximal. On to `Cc1cc(CC(CC(=O)N2CCC(N3Cc4ccccc4NC3=O)CC2)c2ccccn2)cc2cn[nH]c12` (racemic) [Example 1, (±)-3-{1-[4-(7-Methyl-1H-indazol-5-yl)-3-pyridin-2-yl-butyryl]-piperidin-4-yl}-3,4-dihydro-1H-quinazolin-2-one], for which the concentration for half-maximal inhibition (IC50) is less than 10 nM. In the case of `Cc1cc(CC(CC(=O)N2CCC(N3Cc4ccccc4NC3=O)CC2)c2nc(Cc3ccccc3)no2)cc2cn[nH]c12` (racemic) [Example 2, (±)-3-{1-[3-(3-Benzyl-[1,2,4]oxadiazol-5-yl)-4-(7-methyl-1H-indazol-5-yl)-butyryl]-piperidin-4-yl}-3,4-dihydro-1H-quinazolin-2-one], the IC50 is less than 10 nM. Then `Cc1cc(CC(CC(=O)N2CCC(N3Cc4ccccc4NC3=O)CC2)c2nc(CN3CCCCC3)no2)cc2cn[nH]c12` (racemic) [Example 3, (±)-3-{1-[4-(7-Methyl-1H-indazol-5-yl)-3-(3-piperidin-1-ylmethyl [1,2,4]oxadiazol-5-yl)-butyryl]-piperidin-4-yl}-3,4-dihydro-1H-quinazolin-2-one], with 10 to 100 nM; and `Cc1cc(CC(CC(=O)N2CCC(N3Cc4ccccc4NC3=O)CC2)c2nc(-c3ccccc3)no2)cc2cn[nH]c12` (racemic) [Example 4, (±)-3-{1-[4-(7-Methyl-1H-indazol-5-yl)-3-(3-phenyl-[1,2,4]oxadiazol-5-yl)-butyryl]-piperidin-4-yl}-3,4-dihydro-1H-quinazolin-2-one], with 10 to 100 nM. With `Cc1noc(C(CC(=O)N2CCC(N3Cc4ccccc4NC3=O)CC2)Cc2cc(C)c3[nH]ncc3c2)n1` (racemic) [Example 5, (±)-3-{1-[4-(7-Methyl-1H-indazol-5-yl)-3-(3-methyl-[1,2,4]oxadiazol-5-yl)-butyryl]-piperidin-4-yl}-3,4-dihydro-1H-quinazolin-2-one], the concentration for half-maximal inhibition (IC50) is 10 to 100 nM. Turning to `Cc1cc(CC(CC(=O)N2CCC(N3Cc4ccccc4NC3=O)CC2)c2nc(Cc3ccncc3)no2)cc2cn[nH]c12` (racemic) [Example 6, (±)-3-{1-[4-(7-Methyl-1H-indazol-5-yl)-3-(3-pyridin-4-ylmethyl-[1,2,4]oxadiazol-5-yl)-butyryl]-piperidin-4-yl}-3,4-dihydro-1H-quinazolin-2-one], the IC50 fell in the range of 10 to 100 nM. For `Cc1cc(CC(CC(=O)N2CCC(N3Cc4ccccc4NC3=O)CC2)c2nc(CN(C)C)no2)cc2cn[nH]c12` (racemic) [Example 7, (±)-3-{1-[3-(3-Dimethylaminomethyl-[1,2,4]oxadiazol-5-yl)-4-(7-methyl-1H-indazol-5-yl)-butyryl]-piperidin-4-yl}-3,4-dihydro-1H-quinazolin-2-one], the IC50 lay within 10 to 100 nM.

With `Cc1cc(CC(CC(=O)N2CCC3(CC2)OC(=O)Nc2ccccc23)c2nc(Cc3ccccc3)no2)cc2cn[nH]c12` (racemic) [Example 8, (±)-3-{1-[3-(3-Benzyl-[1,2,4]oxadiazol-5-yl)-4-(7-methyl-1H-indazol-5-yl)-butyryl]-4,4′-piperidinyl}-1′,2′-dihydro-2′-oxospiro-[4H-3′,1-benzoxazine], the IC50 is 10 to 100 nM.

With `Cc1noc(C(CC(=O)N2CCC3(CC2)OC(=O)Nc2ccccc23)Cc2cc(C)c3[nH]ncc3c2)n1` (racemic) [Example 9, (±)-3-{1-[3-(3-Methyl-[1,2,4]oxadiazol-5-yl)-4-(7-methyl-1H-indazol-5-yl)-butyryl]-4,4′-piperidinyl}-1′,2′-dihydro-2′-oxospiro-[4H-3′,1-benzoxazine], the IC50 fell in the range of 100 to 1000 nM. For the molecule `Cc1cc(CC(NC(=O)N2CCC(N3Cc4ccccc4NC3=O)CC2)c2nc(Cc3ccccc3)no2)cc2cn[nH]c12` (racemic) [Example 10, (±)-4-(2-Oxo-1,4-dihydro-2H-quinazolin-3-yl)-piperidine-1-carboxylic acid [1-(3-benzyl-[1,2,4]oxadiazol-5-yl)-2-(7-methyl-1H-indazol-5-yl)-ethyl]-amide], the IC50 was less than 10 nM. As to `Cc1noc(C(Cc2cc(C)c3[nH]ncc3c2)NC(=O)N2CCC(N3Cc4ccccc4NC3=O)CC2)n1` (racemic) [Example 11, (±)-4-(2-Oxo-1,4-dihydro-2H-quinazolin-3-yl)-piperidine-1-carboxylic acid [2-(7-methyl-1H-indazol-5-yl)-1-(3-methyl-[1,2,4]oxadiazol-5-yl)-ethyl]-amide], the IC50 lay in the range of 10 to 100 nM. For `Cc1cc(CC(NC(=O)N2CCC(N3Cc4ccccc4NC3=O)CC2)c2nc(Cc3ccncc3)no2)cc2cn[nH]c12` (racemic) [Example 12, (±)-4-(2-Oxo-1,4-dihydro-2H-quinazolin-3-yl)-piperidine-1-carboxylic acid [2-(7-methyl-1H-indazol-5-yl)-1-(3-pyridin-4-ylmethyl-[1,2,4]oxadiazol-5-yl)-ethyl]-amide] the value was 10 to 100 nM; for `Cc1cc(CC(NC(=O)N2CCC(N3Cc4ccccc4NC3=O)CC2)c2nc(CN(C)C)no2)cc2cn[nH]c12` (racemic) [Example 13, (±)-4-(2-Oxo-1,4-dihydro-2H-quinazolin-3-yl)-piperidine-1-carboxylic acid [1-(3-dimethylaminomethyl-[1,2,4]oxadiazol-5-yl)-2-(7-methyl-1H-indazol-5-yl)-ethyl]-amide], 100 to 1000 nM. With `CCc1cc(CC(NC(=O)N2CCC(N3Cc4ccccc4NC3=O)CC2)c2nnn[nH]2)cc2c(C)n[nH]c12` (racemic) [Example 14, (±)-4-(2-Oxo-1,4-dihydro-2H-quinazolin-3-yl)-piperidine-1-carboxylic acid [2-(7-ethyl-3-methyl-1H-indazol-5-yl)-1-(1H-tetrazol-5-yl)-ethyl]-amide], the IC50 lay in the range of 100 to 1000 nM. For `CCc1cc(CC(NC(=O)N2CCC(N3Cc4ccccc4NC3=O)CC2)c2nnn(CCc3ccccc3)n2)cc2c(C)n[nH]c12` (racemic) [Example 16, (±)-4-(2-Oxo-1,4-dihydro-2H-quinazolin-3-yl)-piperidine-1-carboxylic acid [2-(7-ethyl-3-methyl-1H-indazol-5-yl)-1-(2-phenethyl-2H-tetrazol-5-yl)-ethyl]-amide] the value was 10 to 100 nM. Then `CCc1cc(CC(NC(=O)N2CCC(N3Cc4ccccc4NC3=O)CC2)c2nnnn2C)cc2c(C)n[nH]c12` (racemic) [Example 17, (±)-4-(2-Oxo-1,4-dihydro-2H-quinazolin-3-yl)-piperidine-1-carboxylic acid [2-(7-ethyl-3-methyl-1H-indazol-5-yl)-1-(1-methyl-1H-tetrazol-5-yl)-ethyl]-amide], with 10 to 100 nM; and `CCc1cc(CC(NC(=O)N2CCC(N3Cc4ccccc4NC3=O)CC2)c2nnn(CC(=O)c3ccccc3)n2)cc2c(C)n[nH]c12` (racemic) [Example 20, (±)-4-(2-Oxo-1,4-dihydro-2H-quinazolin-3-yl)-piperidine-1-carboxylic acid [2-(7-ethyl-3-methyl-1H-indazol-5-yl)-1-(2-oxo-2Phenethyl-2H-tetrazol-5-yl)-ethyl]-amide], with 10 to 100 nM. Then `CCc1cc(CC(NC(=O)N2CCC(N3Cc4ccccc4NC3=O)CC2)c2nnnn2CC(=O)c2ccccc2)cc2c(C)n[nH]c12` (racemic) [Example 21, (±)-4-(2-Oxo-1,4-dihydro-2H-quinazolin-3-yl)-piperidine-1-carboxylicacid [2-(7-ethyl-3-methyl-1H-indazol-5-yl)-1-[1-(2-oxo-2-phenyl-ethyl)-1H-tetrazol-5-yl)-ethyl]-amide], with 10 to 100 nM; and `CCc1ccnc(C(CC(=O)N2CCC(N3Cc4ccccc4NC3=O)CC2)Cc2cc(C)c3[nH]ncc3c2)c1` (racemic) [Example 22, (±)-3-(1-(3-(4-Ethylpyridin-2-yl)-4-(7-methyl-1H-indazol-5-yl)butanoyl)piperidin-4-yl)-3,4-dihydroquinazolin-2(1H)-one], with 10 to 100 nM; and `Cc1cc(CC(CC(=O)N2CCC(N3Cc4cccc(F)c4NC3=O)CC2)c2ccccn2)cc2cn[nH]c12` (racemic) [Example 23, (±)-8-Fluoro-3-(1-(4-(7-methyl-1H-indazol-5-yl)-3-(pyridin-2-yl)butanoyl)piperidin-4-yl)-3,4-dihydroquinazolin-2(1H)-one], with 10 to 100 nM. On to `Cc1cc(CC(CC(=O)N2CCC(c3cc4ccccc4[nH]c3=O)CC2)c2ccccn2)cc2cn[nH]c12` (racemic) [Example 24, (±)-3-(1-(4-(7-Methyl-1H-indazol-5-yl)-3-(pyridin-2-yl)butanoyl)piperidin-4-yl)quinolin-2(1H)-one], for which the IC50 is 10 to 100 nM. As for `Cc1cccnc1C(CC(=O)N1CCC(N2Cc3ccccc3NC2=O)CC1)Cc1cc(C)c2[nH]ncc2c1` (racemic) [Example 25, (±)-3-(1-(4-(7-Methyl-1H-indazol-5-yl)-3-(3-methylpyridin-2-yl)butanoyl)piperidin-4-yl)-3,4-dihydroquinazolin-2(1H)-one], the IC50 is less than 10 nM. On to `Cc1ccc(C(CC(=O)N2CCC(N3Cc4ccccc4NC3=O)CC2)Cc2cc(C)c3[nH]ncc3c2)nc1` (racemic) [Example 26, (±)-3-(1-(4-(7-Methyl-1H-indazol-5-yl)-3-(5-methylpyridin-2-yl)butanoyl)piperidin-4-yl)-3,4-dihydroquinazolin-2(1H)-one], for which the IC50 lay within 10 to 100 nM.
